Here are results for 13 compounds from patent US12083140B2, “Pharmaceutical composition for preventing and treating glaucoma, containing adenosine derivative” (FUTURE MEDICINE CO., LTD., priority 2017, dated 2024).

Data set [1] concerns TPA-induced mouse ear edema. Kind of data set: Anti-inflammatory activity, TPA-induced mouse ear edema. The conditions noted are these: for TPA-induced mouse ear edema: 0.5% in acetone. In kind it is in vivo, ICR mice. As for the experimental part:
In order to investigate the anti-inflammatory activity of the derivatives of the present invention, the animal experiments were performed as below. Seven-week-old male ICR mice were treated with TPA (12-O-tetradecanoylphorbol 13-acetate, […]) in the right ear. […] The same experiment was performed by treating hydrocortisone used as a treatment agent for inflammation as a control at the same concentration.
Subsequently, secondly, the adenosine derivative compound of the present invention was treated after 6 hours from TPA treatment. Twenty-four hours after TPA treatment, the animals were euthanized using the cervical dislocation method. Then, a right ear sample was obtained using a 6 mm diameter punch. The activity could be confirmed by weighing using a microbalance. The inhibition rate (%) was calculated using the following Equation 1.

Data set [2] deals with T1, adenosine A3 receptor in rats expressed in Chinese hamster ovary (CHO) cells (Rattus norvegicus, UniProt P28647).
T1 construct: expressed in transfected cells; host or cells: CHO
T1 sequence (P28647 1-320): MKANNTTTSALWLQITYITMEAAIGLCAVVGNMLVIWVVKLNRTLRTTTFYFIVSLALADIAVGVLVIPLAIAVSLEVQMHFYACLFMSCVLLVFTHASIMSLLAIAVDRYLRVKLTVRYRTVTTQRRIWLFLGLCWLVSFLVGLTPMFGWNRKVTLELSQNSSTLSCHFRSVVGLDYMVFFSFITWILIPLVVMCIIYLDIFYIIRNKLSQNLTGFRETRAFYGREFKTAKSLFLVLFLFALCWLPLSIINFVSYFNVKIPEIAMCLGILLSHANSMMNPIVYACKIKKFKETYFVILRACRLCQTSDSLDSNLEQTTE
Kind of data set: Binding affinity for rat adenosine A3 receptor expressed in CHO cells.

Data set [3] concerns the target T2, human adenosine A3 receptor (Homo sapiens, UniProt P0DMS8).
T2 construct: expressed in transfected cells; host or cells: CHO (ATCC CCL-61)
T2 sequence (P0DMS8 1-318): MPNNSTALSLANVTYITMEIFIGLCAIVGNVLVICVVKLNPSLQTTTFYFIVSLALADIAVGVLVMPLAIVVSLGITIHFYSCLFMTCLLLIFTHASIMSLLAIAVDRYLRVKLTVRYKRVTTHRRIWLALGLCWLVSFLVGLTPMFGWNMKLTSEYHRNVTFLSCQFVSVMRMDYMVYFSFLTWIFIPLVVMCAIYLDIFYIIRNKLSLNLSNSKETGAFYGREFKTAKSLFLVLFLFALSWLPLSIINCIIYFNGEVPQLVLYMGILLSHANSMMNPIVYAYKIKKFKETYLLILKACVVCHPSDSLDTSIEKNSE
The data set can be described thus: Antagonistic effect and cAMP inhibition test on adenosine A3 receptor (CHO cells, Cl-IB-MECA, Schild analysis). In kind it is cell-based. The conditions noted are these: different concentrations.

In data set [4] the target is T3, human adenosine A2B receptor (Homo sapiens, UniProt P29275).
T3 sequence (P29275 1-332): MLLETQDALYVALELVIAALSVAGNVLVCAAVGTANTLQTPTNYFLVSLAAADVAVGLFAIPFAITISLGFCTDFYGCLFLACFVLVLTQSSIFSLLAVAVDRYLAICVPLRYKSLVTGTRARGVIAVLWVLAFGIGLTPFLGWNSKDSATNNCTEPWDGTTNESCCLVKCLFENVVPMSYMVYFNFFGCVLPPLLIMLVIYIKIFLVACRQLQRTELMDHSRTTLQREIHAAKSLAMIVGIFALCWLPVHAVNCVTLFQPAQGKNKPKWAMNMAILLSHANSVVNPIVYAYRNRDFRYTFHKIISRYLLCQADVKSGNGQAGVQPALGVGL
Kind of data set: Agonist or antagonist activity at human adenosine A2B receptor. Format: biochemical.

The subject of data set [5] is extracellular matrix proteins (Fibronectin, SMA and MYOC). The data set can be described thus: Anti-fibrotic effect on trabecular meshwork tissue (immunostaining). The conditions noted are these: Example 2 oral 20 mg/kg once a day and 10 mg/kg twice a day; acetazolamide 4.17 mg/kg once a day. In kind it is in vivo, C57BL/6J mice. The protocol:
In Experimental Example 10, the ocular tissues of each laboratory animal after measurement of intraocular pressure were extracted and sectioned and immunostaining using antibody was performed to confirm the expression of extracellular matrix proteins (Fibronectin, SMA and MYOC) and the results are shown in FIG. 13. In FIG. 13, Normal represents the trabecular meshwork of the animal which dexamethasone was not treated with in Experimental Example 10, Control represents the trabecular meshwork tissue of the animal to which only the excipient was administered in Experimental Example 10, Acetazolamide represents the trabecular meshwork tissue of the animal to which acetazolamide was administered in Experimental Example 10. Fluorescently stained tissue was observed under fluorescence microscope under the same conditions (magnification 200×, exposure time 1 sec).

The subject of data set [6] is MMP (MMP2, MMP9). Kind of data set: MMP enzyme protein and mRNA expression in trabecular meshwork tissue. In kind it is in vivo, C57BL/6J mice. The conditions noted are these: Example 2 oral 20 mg/kg once a day and 10 mg/kg twice a day; acetazolamide 4.17 mg/kg once a day. The protocol:
(§1) In Experimental Example 10, the expression amounts of these proteins and mRNAs in MMP and TIMP enzymes were measured for the eye tissues of the respective laboratory animals which the measurement of the intraocular pressure was completed, and the results are shown in FIG. 14 to FIG. 17. FIG. 14 and FIG. 15 show protein expression amounts of MMP (MMP2, MMP9) and TIMP (TIMP 1, TIMP2) enzymes, respectively. FIG. 16 and FIG. 17 show mRNA expression levels. In FIG. 14 to FIG. 17, Normal represents the expression level of the animal to which the dexamethasone was not treated in Experimental Example 10, Control represents the expression level of the animal to which only the excipient was administered in Experimental Example 10, and Acetazolamide represents the expression level of the animal to which acetazolamide was administered in Experimental Example 10.

Data set [7] relates to TIMP (TIMP 1, TIMP2). Kind of data set: TIMP enzyme protein and mRNA expression in trabecular meshwork tissue. As to conditions: Example 2 oral 20 mg/kg once a day and 10 mg/kg twice a day; acetazolamide 4.17 mg/kg once a day. Format: in vivo, C57BL/6J mice. The protocol: as §1
In data set [8] the target is T4, human adenosine A2A receptor (hA2A) (Homo sapiens, UniProt P29274).
T4 construct: expressed in transfected cells; host or cells: HEK 293
The data set can be described thus: Binding affinity for human adenosine A2A receptor (HEK 293 cells, [3H]CGS-21680). As to conditions: test concentration not given.

In data set [9] the target is T5, human adenosine A3 receptor (hA3) (Homo sapiens, UniProt P0DMS8).
T5 construct: expressed in transfected cells; host or cells: CHO (ATCC CCL-61)
T5 sequence (P0DMS8 1-318): T2 sequence (P0DMS8 1-318)
The data set can be described thus: Binding affinity for human adenosine A3 receptor (CHO cells, [125I]AB-MECA). The conditions noted are these: read-out: K(nM) hA3.
Protocol: The Chinese hamster ovary (CHO, ATCC; American Cell Line No. CCL-61) cells expressing the adenosine A1 and A3 receptors were cultured in F-12 (Gibco Co., USA) medium supplemented with 10% fetal bovine serum (FBS) and penicillin/streptomycin (100 units/ml and 100 μg/ml) at 37° C. and 5% carbon dioxide. […] Various concentrations of the derivatives of the present invention are first dissolved in dimethylsulfoxide (DMSO) and then diluted with buffer solution and the final concentration of DMSO should not exceed 1%, and the cells are incubated in a 37° C. thermostat for 1 hour and the cells were rapidly filtered under reduced pressure using a cell collector (TOMTEC Co., USA). Subsequently, the test tube was washed three times with 3 ml buffer, and radioactivity was determined using a γ-counter. […] Specific binding was calculated by subtracting non-specific binding from total binding. From the measured specific binding, the bonding affinity of each sample of the various receptors was determined.

The target in data set [10] is T6, human adenosine A1 receptor (hA1) (Homo sapiens, UniProt P30542).
T6 construct: expressed in transfected cells; host or cells: CHO (ATCC CCL-61)
T6 sequence (P30542 1-326): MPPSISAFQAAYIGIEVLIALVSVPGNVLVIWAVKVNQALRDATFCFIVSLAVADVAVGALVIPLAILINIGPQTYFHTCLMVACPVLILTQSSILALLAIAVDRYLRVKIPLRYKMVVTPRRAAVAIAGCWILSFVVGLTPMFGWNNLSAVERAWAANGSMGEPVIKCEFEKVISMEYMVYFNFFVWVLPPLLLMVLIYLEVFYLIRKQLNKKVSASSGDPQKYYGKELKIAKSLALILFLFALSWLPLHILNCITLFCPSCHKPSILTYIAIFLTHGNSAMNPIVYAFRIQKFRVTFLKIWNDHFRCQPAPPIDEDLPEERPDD
The data set can be described thus: Binding affinity for human adenosine A1 receptor (CHO cells, [3H]CCPA). The conditions noted are these: test concentration not given.

[11] abbreviates: 0.5% in mixed solvent of distilled water and acetone (1:4).
[12] abbreviates: 0.5% in mixed solvent of DMSO and acetone (1:9).

T4 sequence (P29274 whole entry): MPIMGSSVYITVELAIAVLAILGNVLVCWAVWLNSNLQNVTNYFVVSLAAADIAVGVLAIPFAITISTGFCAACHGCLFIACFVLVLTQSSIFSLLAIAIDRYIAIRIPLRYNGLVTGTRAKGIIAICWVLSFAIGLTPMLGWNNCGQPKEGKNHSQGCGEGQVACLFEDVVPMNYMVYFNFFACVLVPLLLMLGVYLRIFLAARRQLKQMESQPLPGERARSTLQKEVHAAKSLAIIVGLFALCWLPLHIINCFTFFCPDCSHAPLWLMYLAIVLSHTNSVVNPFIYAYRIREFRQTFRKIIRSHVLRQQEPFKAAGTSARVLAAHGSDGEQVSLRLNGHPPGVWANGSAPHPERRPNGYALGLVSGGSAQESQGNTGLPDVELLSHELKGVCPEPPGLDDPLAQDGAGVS

What is called melting point is the temperature of the solid-liquid transition. Take `O[C@@H]1[C@H](O)CS[C@H]1n1cnc2c(NCc3cccc(F)c3)nc(Cl)nc21` [Example 1, (2R,3R,4S)-2-(2-chloro-6-(3-fluorobenzylamino)-9H-purin-9-yl)tetrahydrothiophene-3,4-diol]: the melting point is 183.2 to 183.5 °C.
As for `O[C@@H]1[C@H](O)CS[C@H]1n1cnc2c(NCc3cccc(Br)c3)nc(Cl)nc21` [Example 3, (2R,3R,4S)-2-(2-chloro-6-(3-bromobenzylamino)-9H-purin-9-yl)tetrahydrothiophene-3,4-diol], the melting point lay in the range of 184 to 185 °C. In addition, the “TPA-induced mouse ear edema” value in data set [1] is listed as “reduced by a small amount”.
For `O[C@@H]1[C@H](O)CS[C@H]1n1cnc2c(NCc3cccc(I)c3)nc(Cl)nc21` [Example 4, (2R,3R,4S)-2-(2-chloro-6-(3-iodobenzylamino)-9H-purin-9-yl)tetrahydrothiophene-3,4-diol], the results for the “TPA-induced mouse ear edema” value in data set [1] and in data set [1] (listed as compound 4) were “reduced by a small amount” and “had an effect of reducing edema”, respectively. The compound further yielded a Ki in data set [2] of 3.89 ± 1.15 nM. Besides, the “effect of the agonist Cl-IB-MECA in CHO cells treated with the compound” value in data set [3] is reported as “inhibited depending on the concentration”. Also, the “activity as an agonist or an antagonist at human adenosine A2B receptor” value in [4] is reported as “did not show activity as an agonist or an antagonist”.
In turn, `O[C@@H]1[C@H](O)CS[C@H]1n1cnc2c(NCc3ccccc3Cl)nc(Cl)nc21` [Example 5, (2R,3R,4S)-2-(2-chloro-6-(2-chlorobenzylamino)-9H-purin-9-yl) tetrahydrothiophene-3,4-diol] yielded a melting point of 198.7 to 199.7 °C. The compound further yielded an inflammation inhibition rate in data set [1] (setting [11]) of 17%.
Taken in the same sequence, the figures for `COc1ccc(Cl)cc1CNc1nc(Cl)nc2c1ncn2[C@@H]1SC[C@@H](O)[C@H]1O` [Example 6, (2R,3R,4S)-2-(2-chloro-6-(5-chloro-2-methoxybenzylamino)-9H-purin-9-yl)tetrahydrothiophene-3,4-diol] were 188.8 to 189.8 °C and 34%.
`COc1ccccc1CNc1nc(Cl)nc2c1ncn2[C@@H]1SC[C@@H](O)[C@H]1O` [Example 7, (2R,3R,4S)-2-(2-chloro-6-(2-methoxybenzylamino)-9H-purin-9-yl)tetrahydrothiophene-3,4-diol] showed a melting point of 188 °C. The inflammation inhibition rate in data set [1] (setting [11]) turned out to be 53%.
With `O=C(O)c1cccc(CNc2nc(Cl)nc3c2ncn3[C@@H]2SC[C@H](O)[C@@H]2O)c1` [Example 9, 3-((2-chloro-9-((2R,3S,4R)-3,4-dihydroxytetrahydrothiophen-2-yl)-9H-purin-6-ylamino)methyl)benzoic acid], the melting point was in the range of 254 to 256.9 °C.
Still for that read-out and setting: then `O[C@@H]1[C@H](O)CS[C@H]1n1cnc2c(NCc3cccc(Br)c3)ncnc21` [Example 13, (2R,3R,4S)-2-(6-(3-bromobenzylamino)-9H-purin-9-yl)tetrahydrothiophene-3,4-diol], with 183 to 184 °C; and `O[C@@H]1[C@H](O)CS[C@H]1n1cnc2c(NCc3cccc(I)c3)ncnc21` [Example 14, (2R,3R,4S)-2-(6-(3-iodobenzylamino)-9H-purin-9-yl) tetrahydrothiophene-3,4-diol], with 198.8 to 199.8 °C.
As to `O[C@@H]1[C@H](O)CO[C@H]1n1cnc2c(NCc3cccc(Br)c3)nc(Cl)nc21` [Example 15, (2R,3R,4R)-2-(6-(3-bromobenzylamino)-2-chloro-9H-purin-9-yl)tetrahydrofuran-3,4-diol], the melting point is 181.5 to 181.7 °C. The inflammation inhibition rate in data set [1] (setting [12]) worked out at 59%.
In the same order, the values of `O[C@@H]1[C@H](O)CO[C@H]1n1cnc2c(NCc3cccc(I)c3)nc(Cl)nc21` [Example 16, (2R,3R,4R)-2-(6-(3-iodobenzylamino)-2-chloro-9H-purin-9-yl)tetrahydrofuro-3,4-diol] are 195.5 to 195.8 °C and 79%.
`CC(=O)Nc1nnc(S(N)(=O)=O)s1` [acetazolamide, reference compound]: in [5], the “expression of fibronectin, SMA and MYOC protein in trabecular meshwork tissue” value is “increased expression”. For the same compound, the “protein and mRNA expression levels of MMP enzyme compared with the normal group” value in [6] is given as “significantly decreased”. Besides, the “protein and mRNA expression levels of TIMP enzyme compared with the normal group” value in data set [7] is listed as “significantly increased”.
Take “(2R,3R,4S)-2-(2-chloro-6-(naphthalen-1-ylmethylbenzylamino)-9H-purin-9-yl)tetrahydrothiophene-3,4-diol [Example 8]”: the “% hA2A” value in data set [8] is −8.3%. Besides, the Ki in data set [9] came out at 24.8 ± 8.1 nM. Further, in data set [10], the “% hA1” value stood at 22.0%.
